Experiments:
human GLP-1 receptor = biological target: T1, human GLP-1 receptor (Homo sapiens, UniProt P43220); assay: Stimulation of cAMP formation in a cell line expressing the cloned human GLP-1 receptor; type: biochemical; details: cAMP production, purified plasma membranes from BHK467-12A (tk-ts13), AlphaScreen cAMP Assay Kit; read-out: Potency [EC50/nM]
T1 construct: expressed in transfected cells; host or cells: BHK467-12A (tk-ts13) baby hamster kidney cells; purified plasma membranes

[1] = biological target: human serum albumin (HSA) (Homo sapiens, UniProt P02768); assay: Albumin binding affinity, competition scintillation proximity assay (SPA)
Sequence of human serum albumin (HSA) (P02768 25-609): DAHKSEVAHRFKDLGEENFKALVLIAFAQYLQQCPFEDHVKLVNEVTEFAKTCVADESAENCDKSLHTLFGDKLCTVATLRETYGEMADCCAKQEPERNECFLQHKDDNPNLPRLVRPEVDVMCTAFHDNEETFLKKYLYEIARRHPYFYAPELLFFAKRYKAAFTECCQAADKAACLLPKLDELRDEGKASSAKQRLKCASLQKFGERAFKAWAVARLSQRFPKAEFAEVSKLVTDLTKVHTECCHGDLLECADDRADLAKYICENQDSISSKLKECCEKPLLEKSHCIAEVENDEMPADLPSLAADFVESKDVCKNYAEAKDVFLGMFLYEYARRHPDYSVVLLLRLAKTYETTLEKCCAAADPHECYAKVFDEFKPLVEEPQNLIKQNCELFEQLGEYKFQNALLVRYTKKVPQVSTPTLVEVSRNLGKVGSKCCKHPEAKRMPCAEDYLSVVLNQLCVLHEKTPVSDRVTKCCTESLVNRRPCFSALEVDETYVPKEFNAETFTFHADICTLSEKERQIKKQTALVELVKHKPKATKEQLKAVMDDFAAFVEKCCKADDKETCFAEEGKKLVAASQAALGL
Protocol: Streptavidin-SPA beads (GE Healthcare RPNQ0009) were incubated with biotinylated HSA for 5 hours. The beads were washed with buffer to remove unbound HSA. […] After 20 hours of gentle rocking at room temperature the plates were centrifuged and counted on a TopCounter.

T1 sequence (P43220 24-463): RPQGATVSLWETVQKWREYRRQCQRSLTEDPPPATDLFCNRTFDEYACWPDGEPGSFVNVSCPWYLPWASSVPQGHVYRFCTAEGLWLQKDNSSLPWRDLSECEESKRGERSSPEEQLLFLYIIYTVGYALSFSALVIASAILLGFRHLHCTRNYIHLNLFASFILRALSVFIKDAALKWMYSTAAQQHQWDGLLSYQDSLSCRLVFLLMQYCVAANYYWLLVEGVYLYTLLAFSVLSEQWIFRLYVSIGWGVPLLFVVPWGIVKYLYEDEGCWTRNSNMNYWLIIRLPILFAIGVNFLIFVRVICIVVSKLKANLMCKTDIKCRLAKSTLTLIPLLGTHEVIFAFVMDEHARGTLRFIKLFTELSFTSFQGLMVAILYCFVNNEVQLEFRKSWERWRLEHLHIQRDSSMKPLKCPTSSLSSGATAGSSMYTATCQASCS

Row | EC50 (human GLP-1 receptor) [nM] | EC50 [1] [nM] | SMILES
1 | 1.35 | 400 to 800 | CC[C@H](C)[C@H](NC(=O)[C@H](Cc1ccccc1)NC(=O)[C@H](CCC(=O)O)NC(=O)[C@H](CCCNC(=N)N)NC(=O)[C@H](C)NC(=O)[C@H](C)NC(=O)[C@H](CCC(N)=O)NC(=O)[C@H](CCC(=O)O)NC(=O)[C@H](CCC(=O)O)NC(=O)[C@H](CC(C)C)NC(=O)[C@H](Cc1ccc(O)cc1)NC(=O)[C@H](CO)NC(=O)[C@H](CO)NC(=O)[C@@H](NC(=O)[C@H](CC(=O)O)NC(=O)[C@H](CO)NC(=O)[C@@H](NC(=O)[C@H](Cc1ccccc1)NC(=O)[C@@H](NC(=O)CNC(=O)[C@H](CCC(=O)O)NC(=O)[C@H](C)NC(=O)CCc1c[nH]cn1)[C@@H](C)O)[C@@H](C)O)C(C)C)C(=O)N[C@@H](C)C(=O)N[C@@H](Cc1c[nH]c2ccccc12)C(=O)N[C@@H](CC(C)C)C(=O)N[C@H](C(=O)N[C@@H](CCCNC(=N)N)C(=O)NCC(=O)N[C@@H](CCCNC(=N)N)C(=O)N[C@@H](CCCCNC(=O)COCCOCCNC(=O)COCCOCCNC(=O)CC[C@H](NC(=O)CCCCCCCCCCCCCCCCCCC(=O)O)C(=O)O)C(=O)O)C(C)C [Example 22, N-epsilon37-[2-(2-{2-[2-(2-{2-[(S)-4-Carboxy-4-(19-carboxynonadecanoylamino)butyrylamino]ethoxy}ethoxy)acetylamino]ethoxy}ethoxy)acetyl][DesaminoHis7,Glu22,Arg26,Arg34,Lys37]GLP-1-(7-37)]
2 | 1.8 | 800 to 1500 | CC[C@H](C)[C@H](NC(=O)[C@H](Cc1ccccc1)NC(=O)[C@H](CCC(=O)O)NC(=O)[C@H](CCCNC(=N)N)NC(=O)[C@H](C)NC(=O)[C@H](C)NC(=O)[C@H](CCC(N)=O)NC(=O)[C@H](CCC(=O)O)NC(=O)[C@H](CCC(=O)O)NC(=O)[C@H](CC(C)C)NC(=O)[C@H](Cc1ccc(O)cc1)NC(=O)[C@H](CO)NC(=O)[C@H](CO)NC(=O)[C@@H](NC(=O)[C@H](CC(=O)O)NC(=O)[C@H](CO)NC(=O)[C@@H](NC(=O)[C@H](Cc1ccccc1)NC(=O)[C@@H](NC(=O)CNC(=O)[C@H](CCC(=O)O)NC(=O)C(C)(C)NC(=O)[C@@H](N)Cc1c[nH]cn1)[C@@H](C)O)[C@@H](C)O)C(C)C)C(=O)N[C@@H](C)C(=O)N[C@@H](Cc1c[nH]c2ccccc12)C(=O)N[C@@H](CC(C)C)C(=O)N[C@H](C(=O)N[C@@H](CCCNC(=N)N)C(=O)NCC(=O)N[C@@H](CCCNC(=N)N)C(=O)N[C@@H](CCCCNC(=O)COCCOCCNC(=O)CC[C@H](NC(=O)CC[C@H](NC(=O)CCCCCCCCCCCNC(=O)CCCS(=O)(=O)NC(=O)CCCCCCCCCCCCCCCc1nnn[nH]1)C(=O)O)C(=O)O)C(N)=O)C(C)C [Example 12, N-epsilon37-[2-(2-{2-[(S)-4-Carboxy-4-((S)-4-carboxy-4-{12-[4-(16-(1H-tetrazol-5-yl)hexadecanoylsulfamoyl)butyrylamino]dodecanoylamino}butyrylamino)butyrylamino]ethoxy}ethoxy)acetyl][Aib8,Glu22,Arg26,Arg34,Lys37]GLP-1-(7-37)amide]

Source: patent US9409966B2, “Glucagon-like peptide-1 derivatives and their pharmaceutical use” (priority 2007, dated 2016)
